Key:
tumour cells [1] = conditions: for Cytotoxicity E. coli: change of drug cytotoxicity on tumour cells after co-incubation with E. coli, bacteria removed by filtration, MTS, Up/Down/NC
tumour cells [2] = assay: in vitro cytotoxicity screen of drugs co-incubated with L. welshimeri (tumour cell survival assay, MTS); conditions: change of drug cytotoxicity on tumour cells after co-incubation with L. welshimeri, bacteria removed by filtration, Up/Down/NC
[3] = system: Subcutaneous flank CT26 tumours; assay: murine model of intratumoural bacterial effects on chemotherapy
4T1 Luc cells = assay: tumour cell survival assay, drug co-incubated with E. coli, supernatant applied to 4T1 Luc cells; type: cell-based, mouse; conditions: gemcitabine 10 µM co-incubated with E. coli at different cfu/ml, Figure 1b

COc1cccc2c1C(=O)c1c(O)c3c(c(O)c1C2=O)C[C@@](O)(C(=O)CO)C[C@@H]3O[C@H]1C[C@H](N)[C@H](O)[C@H](C)O1 [Doxorubicin]
Cytotoxicity E. coli (tumour cells [1]): Down

Nc1ncnc2c1ncn2[C@@H]1O[C@H](CO)[C@@H](O)[C@@H]1O [Vidarabine]
Cytotoxicity E. coli (tumour cells [1]): decreasing and Down

COc1cccc2c1C(=O)c1c(O)c3c(c(O)c1C2=O)C[C@@](O)(C(C)=O)C[C@@H]3O[C@H]1C[C@H](N)[C@H](O)[C@H](C)O1 [Daunorubicin]
Cytotoxicity L. welshimeri (tumour cells [2]): Down | Cytotoxicity E. coli (tumour cells [1]): Down

COc1cc([C@@H]2c3cc4c(cc3[C@@H](O[C@@H]3O[C@@H]5CO[C@@H](C)O[C@H]5[C@H](O)[C@H]3O)[C@H]3COC(=O)[C@H]23)OCO4)cc(OC)c1OP(=O)(O)O [Etoposide phosphate]
Cytotoxicity E. coli (tumour cells [1]): decreasing and Down

CC1(C)CCC2=C(O1)c1ccccc1C(=O)C2=O [B-Lapachone]
Cytotoxicity E. coli (tumour cells [1]): Down

Nc1nc(=O)[nH]cc1F [5-fluorocytosine]
Cytotoxicity E. coli (tumour cells [1]): Up

O=c1[nH]c(=O)n(C2CCCO2)cc1F (centres unmarked) [Tegafur]
Cytotoxicity E. coli (tumour cells [1]): increasing and Up

NC(=O)c1cc(N2CC2)c([N+](=O)[O-])cc1[N+](=O)[O-] [CB1954]
Cytotoxicity L. welshimeri (tumour cells [2]): Up | median survival post Day 0 ([3]; CB1954 + bacteria group: E. coli i.t., CB1954 20 mg/kg i.p.): 26 days | median survival post Day 0 ([3]; CB1954 alone group: PBS i.t., CB1954 20 mg/kg i.p.): 8 days | Cytotoxicity E. coli (tumour cells [1]): Up

Nc1ccn([C@@H]2O[C@H](CO)[C@@H](O)C2(F)F)c(=O)n1 [Gemcitabine]
efficacy (tumour cell survival) (4T1 Luc cells): decreased | tumour volume ([3]; gemcitabine + bacteria group compared with gemcitabine alone group, various time points, gemcitabine 60 mg/kg i.p., E. coli i.t.): Significantly increased | median survival post Day 0 ([3]; gemcitabine + bacteria group: E. coli i.t., gemcitabine 60 mg/kg i.p.): 17 days | median survival post Day 0 ([3]; gemcitabine alone group: PBS i.t., gemcitabine 60 mg/kg i.p.): 28 days | Cytotoxicity E. coli (tumour cells [1]): decreasing and Down | cytotoxicity after incubation with heat-inactivated lysate (or intact bacteria) (tumour cells [1]; gemcitabine 10 µM, E. coli heat-inactivated at 95 °C, Figure 2): no reduction in cytotoxicity

O=C1c2c(O)ccc(O)c2C(=O)c2c(NCCNCCO)ccc(NCCNCCO)c21 [Mitoxantrone]
Cytotoxicity E. coli (tumour cells [1]): Down

Nc1nc(F)nc2c1ncn2[C@@H]1O[C@H](COP(=O)(O)O)[C@@H](O)[C@@H]1O [Fludarabine de phosphate]
Cytotoxicity L. welshimeri (tumour cells [2]): Up | Cytotoxicity E. coli (tumour cells [1]): Up

Nc1nc(Cl)nc2c1ncn2[C@H]1C[C@H](O)[C@@H](CO)O1 [Cladribine]
Cytotoxicity L. welshimeri (tumour cells [2]): Down | Cytotoxicity E. coli (tumour cells [1]): Down

OC[C@H]1O[C@@H](n2cnc3c(S)ncnc32)C[C@@H]1O [6-Mercaptopurine-2’-deoxyriboside]
Cytotoxicity E. coli (tumour cells [1]): Up

CC(=O)[C@]1(O)Cc2c(O)c3c(c(O)c2[C@@H](O[C@H]2C[C@H](N)[C@H](O)[C@H](C)O2)C1)C(=O)c1ccccc1C3=O [Idarubicin]
Cytotoxicity E. coli (tumour cells [1]): Down

CC1=CC(=O)c2ccccc2C1=O [Menadione]
Cytotoxicity E. coli (tumour cells [1]): Down

Reference: patent publication EP2998000A1, “COMBINATION THERAPY FOR CANCER” (priority 2014, dated 2016)
